Assay results from patent US11946059B2, “In vivo generation of water-soluble cannabinoids in plant cell suspension cultures” (Trait Biosciences Inc., priority 2017, dated 2024).

Test: Cannabinoid stability in solution (time course incubation)
Type: physicochemical
Settings: for Day 0 concentration in solution / Day 1 concentration in solution / Day 4 concentration in solution / Day 5 concentration in solution / Day 6 concentration in solution / Day 7 concentration in solution: room temperature, shielded from light
Experimental: Rather, levels increased slightly in all treatments. The absence of any residual UGTs were cross-check and confirmed as the samples were purified by SPE, washed and eluted in 30% and 65%-100% ethanol, respectively.
Materials and Methods Example 19: Cannabinoid Stability in Solution.
The present inventors generated a stock solution of the CBD/CBDA+glycosides mixture in water which was further diluted 10× in all treatment solutions. A 10 mL starting volume was used for all treatments, and all treatments were prepared in triplicate. […] Each sample was incubated at room temperature. Samples were stored in 15 mL polypropylene centrifuge tubes. All samples were shielded from light—tubes were wrapped in aluminum foil. Each sample was prepared in triplicate in the following buffers: water only; pH=3; pH=4; pH=7; pH=8; water only+10 mM ascorbic acid; pH=3+10 mM ascorbic acid; pH=4+10 mM ascorbic acid; pH=7+10 mM ascorbic acid; and pH=8+10 mM ascorbic acid.

[1] = Water + AA (10 mM ascorbic acid)
[2] = pH = 3 + AA (10 mM ascorbic acid)
[3] = pH = 4 + AA (10 mM ascorbic acid)
[4] = pH = 7 + AA (10 mM ascorbic acid)
[5] = pH = 8 + AA (10 mM ascorbic acid)

What does the source list for `C=C(C)C1CCC(C)=CC1c1c(O)cc(CCCCC)cc1OC1OC(COC(C)=O)C(O)C(O)C1O` (stereo not shown) [1X CBD O-Acetyl Gly]?
Day 0 concentration in solution [1]: 102.24 ± 12.18 µg/mL; Day 0 concentration in solution (Water): 137.46 ± 35.49 µg/mL; Day 0 concentration in solution [2]: 110.44 ± 13.31 µg/mL; Day 0 concentration in solution (pH = 3): 126.49 ± 43.90 µg/mL; Day 0 concentration in solution [3]: 118.27 ± 1.16 µg/mL; Day 0 concentration in solution (pH = 4): 101.60 ± 31.49 µg/mL; Day 0 concentration in solution [4]: 108.19 ± 19.12 µg/mL; Day 0 concentration in solution (pH = 7): 107.55 ± 20.03 µg/mL; Day 0 concentration in solution [5]: 137.53 ± 6.71 µg/mL; Day 0 concentration in solution (pH = 8): 108.41 ± 12.42 µg/mL; Day 1 concentration in solution [1]: 204.63 ± 24.09 µg/mL; Day 1 concentration in solution (Water): 136.86 ± 139.68 µg/mL; Day 1 concentration in solution [2]: 223.32 ± 48.67 µg/mL; Day 1 concentration in solution (pH = 3): 216.46 ± 9.61 µg/mL; Day 1 concentration in solution [3]: 198.56 ± 24.37 µg/mL; Day 1 concentration in solution (pH = 4): 150.94 ± 27.25 µg/mL; Day 1 concentration in solution [4]: 185.02 ± 35.46 µg/mL; Day 1 concentration in solution (pH = 7): 250.75 ± 6.23 µg/mL; Day 1 concentration in solution [5]: 180.83 ± 33.60 µg/mL; Day 1 concentration in solution (pH = 8): 221.10 ± 16.30 µg/mL; Day 4 concentration in solution [1]: 153.06 ± 28.19 µg/mL; Day 4 concentration in solution (Water): 160.23 ± 23.75 µg/mL; Day 4 concentration in solution [2]: 157.19 ± 1.58 µg/mL; Day 4 concentration in solution (pH = 3): 174.88 ± 14.16 µg/mL; Day 4 concentration in solution [3]: 144.44 ± 18.85 µg/mL; Day 4 concentration in solution (pH = 4): 225.84 ± 39.59 µg/mL; Day 4 concentration in solution [4]: 176.48 ± 33.58 µg/mL; Day 4 concentration in solution (pH = 7): 190.05 ± 24.38 µg/mL; Day 4 concentration in solution [5]: 152.03 ± 5.79 µg/mL; Day 4 concentration in solution (pH = 8): 174.09 ± 59.87 µg/mL; Day 5 concentration in solution [1]: 146.60 ± 10.68 µg/mL; Day 5 concentration in solution (Water): 131.77 ± 33.91 µg/mL; Day 5 concentration in solution [2]: 97.81 ± 29.67 µg/mL; Day 5 concentration in solution (pH = 3): 83.72 ± 35.56 µg/mL; Day 5 concentration in solution [3]: 113.89 ± 31.15 µg/mL; Day 5 concentration in solution (pH = 4): 164.84 ± 35.61 µg/mL; Day 5 concentration in solution [4]: 110.66 ± 48.12 µg/mL; Day 5 concentration in solution (pH = 7): 186.93 ± 5.65 µg/mL; Day 5 concentration in solution [5]: 92.06 ± 15.47 µg/mL; Day 5 concentration in solution (pH = 8): 162.75 ± 31.35 µg/mL; Day 6 concentration in solution [1]: 200.20 ± 37.42 µg/mL; Day 6 concentration in solution (Water): 148.36 ± 33.57 µg/mL; Day 6 concentration in solution [2]: 190.69 ± 36.71 µg/mL; Day 6 concentration in solution (pH = 3): 175.06 ± 31.37 µg/mL; Day 6 concentration in solution [3]: 215.72 ± 16.69 µg/mL; Day 6 concentration in solution (pH = 4): 231.03 ± 36.34 µg/mL; Day 6 concentration in solution [4]: 205.61 ± 26.64 µg/mL; Day 6 concentration in solution (pH = 7): 267.45 ± 30.83 µg/mL; Day 6 concentration in solution [5]: 217.66 ± 11.23 µg/mL; Day 6 concentration in solution (pH = 8): 218.64 ± 22.05 µg/mL; Day 7 concentration in solution [1]: 167.42 ± 22.79 µg/mL; Day 7 concentration in solution (Water): 185.62 ± 22.87 µg/mL; Day 7 concentration in solution [2]: 147.21 ± 8.07 µg/mL; Day 7 concentration in solution (pH = 3): 195.77 ± 15.07 µg/mL; Day 7 concentration in solution [3]: 166.23 ± 17.10 µg/mL; Day 7 concentration in solution (pH = 4): 201.23 ± 6.99 µg/mL; Day 7 concentration in solution [4]: 157.89 ± 17.21 µg/mL; Day 7 concentration in solution (pH = 7): 187.10 ± 28.07 µg/mL; Day 7 concentration in solution [5]: 181.7 ± 29.53 µg/mL; Day 7 concentration in solution (pH = 8): 193.61 ± 21.84 µg/mL; change of level in solution over the incubation (all treatments, after day 7, room temperature): not found to decrease in any sample after day 7
